System: patients with relapsed or refractory multiple myeloma
Assay: Phase 1/2 clinical study of REGN5458 monotherapy
Settings: for Complete response (CR) or stringent CR (sCR) / Overall response rate (ORR) / Partial response (PR) / Very good partial response (VGPR): preliminary results
[1] = Dose Levels 1, 2, 3 (3, 6, 12 mg; n = 24)
[2] = Dose Levels 4, 5 (24, 48 mg; n = 17)
[3] = patients with marrow plasmacytosis <50%

Substance: REGN5458: anti-BCMA×anti-CD3 bispecific antibody: mAb21581 BCMA heavy chain, mAb7221G CD3 heavy chain and common light chain; SEQ ID NOs 126, 127, 129
- Complete response (CR) or stringent CR (sCR) (Dose Level 6 (96 mg; n = 8)): 0% (0)
- Overall response rate (ORR) (Dose Level 6 (96 mg; n = 8)): 63% (5)
- Partial response (PR) (Dose Level 6 (96 mg; n = 8)): 0% (0)
- Very good partial response (VGPR) (Dose Level 6 (96 mg; n = 8)): 63% (5)
- Complete response (CR) or stringent CR (sCR) [1]: 21% (5)
- Overall response rate (ORR) [1]: 29% (7)
- Partial response (PR) [1]: 4% (1)
- Very good partial response (VGPR) [1]: 4% (1)
- Complete response (CR) or stringent CR (sCR) [2]: 18% (3)
- Overall response rate (ORR) [2]: 41% (7)
- Partial response (PR) [2]: 0% (0)
- Very good partial response (VGPR) [2]: 24% (4)
- objective response rate (ORR) (dose level 6): 62.5%
- objective response rate (ORR) (dose levels 1 to 3): 29.2%
- objective response rate (ORR) (dose levels 4 and 5): 41.2%
- observed median duration of response (human, in vivo): 6.01 months
- complete response (CR) or stringent CR (of responders): 42.1%
- responders achieving at least a very good partial response (VGPR) (of responders): 95%
- responders with DOR ≥8 months (of responders): 36.8%
- responders with duration of response (DOR) ≥4 months (of responders): 63.2%
- ORR (patients with extramedullary plasmacytomas (EMP)): 14.3%
- ORR [3]: 71.4%
- stringent complete response [3]: 35.7%
- very good partial response [3]: 35.7%
- ORR (patients with marrow plasmacytosis ≥50%): 9.1%
- ORR (patients without EMP): 45%
- complete response or stringent complete response (patients without EMP): 20%
- very good partial response (patients without EMP): 22.5%
- responders receiving ongoing treatment (to date): 74%

Source: patent US11919965B2, “Methods of treating multiple myeloma with bispecific anti-BCMA x anti-CD3 antibodies” (Regeneron Pharmaceuticals, Inc., priority 2019, dated 2024)
